What was measured:
[1] = system: DU-145 (prostate cancer) cells; assay: Confocal / fluorescence lifetime microscopy of doxorubicin uptake from rHDL-Doxorubicin nanoparticles; format: cell-based
Experimental: The data presented in FIGS. 11-12 were obtained via fluorescence lifetime microscopy via the following protocols. Apo A-I was labeled with Alexa Fluor 647 (Fluorescent dye Excitation: 650 nm; Emission:665 nm), using Alexa Fluor™ 647 Antibody Labeling Kit (by Thermo Fisher) according to the manufacturer's protocol. The rHDL-Doxorubicin nanoparticles were prepared with the Alexa Fluor 647 labeled Apo A-I, using the cholate dialysis protocol. The DU-145 (prostate cancer) cells were treated with the rHDL-Doxorubicin nanoparticles at 37° C./5% CO2 and observed under confocal microscopy for uptake of doxorubicin. In order to inhibit the uptake, […] antibody was used to block the receptor activity.
For imaging, the cells were plated on custom glass bottom petri dishes. Before imaging, the cells were washed with PBS, and doped with several concentrations of free or rHDL-doxorubicin formulations. For SR-B1 receptor blocking, the DU-145 cells were incubated with antibodies for SR-B1 receptor for 30 minutes at 5% CO2 and 37° C. The cells were excited with a 470 nm diode at 70% power, and the emission imaged at 600 nm. […] For dual label experiments, the samples were excited at 470 nm and 630 nm, with a 520 nm long pass filter on channel 1 to observe DOX fluorescence, and a 647 nm long pass on filter on channel 2 to observe […] emission. […]

cancer cells = conditions: encapsulated by HDL delivery particles; HDL receptor mediated mechanism (Lacko et al., 2002); cited from earlier work

COc1cccc2c1C(=O)c1c(O)c3c(c(O)c1C2=O)C[C@@](O)(C(=O)CO)C[C@@H]3O[C@H]1C[C@H](N)[C@H](O)[C@H](C)O1 [doxorubicin]
cellular localization of doxorubicin ([1]; DU-145 cells treated with rHDL-Doxorubicin nanoparticles, FIG. 11A, FIG. 12): released into the cell cytoplasm

CC(=O)O[C@H]1C(=O)[C@@]2(C)[C@H]([C@H](OC(=O)c3ccccc3)[C@]3(O)C[C@H](OC(=O)[C@H](O)[C@@H](NC(=O)c4ccccc4)c4ccccc4)C(C)=C1C3(C)C)[C@]1(OC(C)=O)CO[C@@H]1C[C@@H]2O [paclitaxel]
uptake by cancer cells (cancer cells): taken up by cancer cells

Alexa 647-conjugated Apo A-I: Apo A-I labeled with Alexa Fluor 647 fluorescent dye
cellular localization of labeled Apo A-I ([1]; DU-145 cells treated with rHDL-Doxorubicin nanoparticles prepared with labeled Apo A-I, FIG. 11B): only localized in the membrane of the cell and does not enter the cell

Reference: patent US20200138727A1, “ENHANCED THERAPEUTIC AGENT AND NUCLEIC ACID DELIVERY VIA HDL OR RECONSTITUTED HDL NANOPARTICLES” (UNIVERSITY OF NORTH TEXAS HEALTH SCIENCE CENTER, priority 2017, published 2020)
